From patent US4902720A (priority 1988, dated 1990)
Like-named read-outs stand apart in the source and are kept apart here.

Tests used:
HSV-2 (333 strain) = settings: for % plaque inhibition: 2 hours pre-incubation
Procedure: In Series No. 1 of Example No. 1, monolayer cultures of Vero, RK-13 (rabbit kidney), and WISH (human amnion, Hayflick) cells were used in the experiments of Example No. 1. The cells were grown in Basal Minimal Eagle's Media supplemented with 5% fetal calf serum, 1% glutamine, sodium bicarbote and antibiotics. Cultures were maintained in a maintenance media that was the same media, except that the maintenance media contained 2% fetal calf serum. An F Strain of HSV-1 was chosen because it is a well-known prototype of HSV-1. This F Strain can be obtained from the American Type Culture Collection (ATCC), 12301 Parklawn Drive, Rockville, MD 20852, at which it is identified as ATC-VR 733. For studies with HSV-2, a G strain of HSV-2 (ATCC-VR 734) and a 333 strain of HSV-2 were selected. These strains also can be obtained from the ATCC.
Two methods were used to test the drug's effectiveness in the suppression of viral growth. In the pre-inoculation experiments, the drug was added after adsorption of the virus. In the pre-incubation experiments, the drug was added prior to infection of the cell cultures.
Accordingly, the pre-inoculation experiments measured the effect of the drug on a cell that was already infected with the virus. The pre-incubation experiments measured the cell cultures that were treated with the drug prior to the inoculation to determine if these cells then would be permissive or non-permissive to the tested virus. In these experiments, plaque reduction assays provided a quantitative measure of antiviral activity and was deemed to be reliable and objective.
In the pre-incubation experiments, the media was either decanted or gently aspirated from the cultures. After decanting or aspirating, 1 ml of the drug dilution plus maintenance media was added to the cultures. The cultures that served as virus controls or cell controls received 2 ml of maintenance media. After the pre-treatment period, the media was again aspirated and the cell cultures were infected with the virus.
When this occurred, the cultures were fixed and stained with crystal violet. The plaque were then carefully counted under the microscope. By such a counting and careful comparison, percentages of plaque inhibition in the treated cultures were then calculated.
The 333 strain, which can be obtained from ATCC, was used.

HSV-1 (McKrae strain) [1] = settings: for No. of Plaques: virus controls 270, 270, 252
Procedure: All cultures were incubated at 37° C. in a 5% CO2 humidified atmosphere. The cultures were stained with crystal violet to aid in counting the plaque.

HSV-1 (McKrae strain) [2] = settings: 20 mg/ml
Procedure: In experiment 1K, cultures were infected with the McKrae strain of HSV-1 at a high multiplicity of infection. […] At designated times, the cultures were harvested. The supernatant fluid and the cells were kept separate to assay for viruses released in the supernatant fluid and also that present in the cells. Both supernatant fluid and the cells were frozen immediately at -85° C. These samples were then assayed for infectious particles on susceptible cells.

HSV-1 (F strain) [3] = settings: 2.5 mg/ml TEAC
HSV-1 (F strain) [4] = settings: for % plaque inhibition: drug added after inoculation; for appearance of cell layer / % plaque inhibition A: Exp. 1D; for appearance of cell layer: after virus adsorption, thin = attached but monolayer not confluent; for % plaque inhibition A: drug added after virus adsorption
HSV-1 (F strain) [5] = settings: for % plaque inhibition B: Exp. 1D
HSV-1 [6] = settings: 20 mg/ml TEAC, virus control 1398
HSV-1 [7] = test: microbe, parasite or virus in culture; settings: read-out: % Reduction

CC[N+](CC)(CC)CC.[Cl-] [TEAC, tetraethylammonium chloride]
% plaque inhibition (HSV-2 (333 strain); 6.25 mg/culture): 0% | % plaque inhibition (HSV-2 (333 strain); 12.50 mg/culture): 25% | % plaque inhibition (HSV-2 (333 strain); 25.00 mg/culture): 42% | % plaque inhibition (HSV-2 (333 strain); 50.00 mg/culture): 56% | sensitivity of HSV-2 (333 strain) to TEAC vs HSV-1 (HSV-2 (333 strain); based on Table 6): even more sensitive to TEAC than HSV-1 | No. of Plaques (HSV-1 (McKrae strain) [1]; 3.125 mg/ml): 247 | No. of Plaques (HSV-1 (McKrae strain) [1]; 6.250 mg/ml): 286 | No. of Plaques (HSV-1 (McKrae strain) [1]; 12.500 mg/ml): 300 | appearance of monolayer (HSV-1 (McKrae strain) [1]; 25 mg/ml): thinned out appearance | No. of Plaques (HSV-1 (McKrae strain) [1]; 25.000 mg/ml): 0 | effectiveness in plaque inhibition (HSV-1 (McKrae strain) [1]; concentrations below 25 mg/ml): not significantly effective in achieving plaque inhibition | virus yield, supernatant (HSV-1 (McKrae strain) [2]; 6 hours P.I., dilution 10^-1, control 3): 0 PFU/m | virus yield, cell (HSV-1 (McKrae strain) [2]; 6 hours P.I., dilution 10^-1, control 7): 2 PFU/m | virus yield, supernatant (HSV-1 (McKrae strain) [2]; 6 hours P.I., dilution 10^-2, control 1): 0 PFU/m | virus yield, cell (HSV-1 (McKrae strain) [2]; 6 hours P.I., dilution 10^-2, control 7): 5 PFU/m | virus yield, supernatant (HSV-1 (McKrae strain) [2]; 6 hours P.I., dilution 10^-3, control 0): 0 PFU/m | virus yield, cell (HSV-1 (McKrae strain) [2]; 6 hours P.I., undiluted (Und.), control 16): 12 PFU/m | virus yield, cell (HSV-1 (McKrae strain) [2]; 10 hours P.I., dilution 10^-1, control 12): 3 PFU/m | virus yield, supernatant (HSV-1 (McKrae strain) [2]; 10 hours P.I., dilution 10^-1, control 22): 0 PFU/m | virus yield, cell (HSV-1 (McKrae strain) [2]; 10 hours P.I., dilution 10^-2, control 2): 0 PFU/m | virus yield, supernatant (HSV-1 (McKrae strain) [2]; 10 hours P.I., dilution 10^-2, control 7): 0 PFU/m | virus yield, supernatant (HSV-1 (McKrae strain) [2]; 10 hours P.I., dilution 10^-3, control 0): 0 PFU/m | virus yield, cell (HSV-1 (McKrae strain) [2]; 10 hours P.I., undiluted (Und.), control 48): 13 PFU/m | virus yield, supernatant (HSV-1 (McKrae strain) [2]; 20 hours P.I., dilution 10^-1, control 91): 0 PFU/m | virus yield, cell (HSV-1 (McKrae strain) [2]; 20 hours P.I., dilution 10^-1, control W.O. (wiped out)): 5 PFU/m | virus yield, supernatant (HSV-1 (McKrae strain) [2]; 20 hours P.I., dilution 10^-2, control 10): 0 PFU/m | virus yield, cell (HSV-1 (McKrae strain) [2]; 20 hours P.I., dilution 10^-2, control W.O. (wiped out)): 0 PFU/m | virus yield, supernatant (HSV-1 (McKrae strain) [2]; 20 hours P.I., dilution 10^-3, control 0): 0 PFU/m | virus yield, cell (HSV-1 (McKrae strain) [2]; 20 hours P.I., undiluted (Und.), control W.O. (wiped out)): 42 PFU/m | virus yield, supernatant (HSV-1 (McKrae strain) [2]; 24 hours P.I., dilution 10^-1, control 107): 0 PFU/m | virus yield, cell (HSV-1 (McKrae strain) [2]; 24 hours P.I., dilution 10^-1, control W.O. (wiped out)): 32 PFU/m | virus yield, supernatant (HSV-1 (McKrae strain) [2]; 24 hours P.I., dilution 10^-2, control 18): 0 PFU/m | virus yield, cell (HSV-1 (McKrae strain) [2]; 24 hours P.I., dilution 10^-2, control W.O. (wiped out)): 10 PFU/m | virus yield, supernatant (HSV-1 (McKrae strain) [2]; 24 hours P.I., dilution 10^-3, control 2): 0 PFU/m | virus yield, cell (HSV-1 (McKrae strain) [2]; 24 hours P.I., undiluted (Und.), control W.O. (wiped out)): 58 PFU/m | virus yield, supernatant (HSV-1 (McKrae strain) [2]; 28 hours P.I., dilution 10^-1, control 190): 0 PFU/m | virus yield, cell (HSV-1 (McKrae strain) [2]; 28 hours P.I., dilution 10^-1, control W.O.): TMTC | virus yield, supernatant (HSV-1 (McKrae strain) [2]; 28 hours P.I., dilution 10^-2, control 58): 0 PFU/m | virus yield, cell (HSV-1 (McKrae strain) [2]; 28 hours P.I., dilution 10^-2, control W.O. (wiped out)): 15 PFU/m | virus yield, supernatant (HSV-1 (McKrae strain) [2]; 28 hours P.I., dilution 10^-3, control 7): 0 PFU/m | virus yield, cell (HSV-1 (McKrae strain) [2]; 28 hours P.I., undiluted (Und.), control W.O.): W.O. | size of the plaque vs control (HSV-1 (F strain) [3]): appreciably smaller | average number of plaque (HSV-1 (F strain) [3]; 1 ml + 4 ml media, after adsorption, control 488.5): 75.5 plaque | antiviral activity (HSV-1 (F strain) [4]; Exp. 1C, all dilutions tested): Antiviral activity was seen in all dilutions tested | % plaque inhibition (HSV-1 (F strain) [4]; Exp. 1C, 0.62 mg/culture): 30% | % plaque inhibition (HSV-1 (F strain) [4]; Exp. 1C, 1.25 mg/culture): 39% | % plaque inhibition (HSV-1 (F strain) [4]; Exp. 1C, 2.50 mg/culture): 46% | % plaque inhibition (HSV-1 (F strain) [4]; Exp. 1C, 5.00 mg/culture): 45% | % plaque inhibition (HSV-1 (F strain) [4]; Exp. 1C, 10.00 mg/culture): 56% | appearance of cell layer (HSV-1 (F strain) [4]; 25 mg/culture): thin | appearance of cell layer (HSV-1 (F strain) [4]; 50 mg/culture): thin | % plaque inhibition A (HSV-1 (F strain) [4]; 6.2 mg/culture): 20% | % plaque inhibition A (HSV-1 (F strain) [4]; 12.5 mg/culture): 62% | % plaque inhibition A (HSV-1 (F strain) [4]; 25.0 mg/culture, cell layer thin): 100% | % plaque inhibition A (HSV-1 (F strain) [4]; 50.0 mg/culture, cell layer thin): 100% | % plaque inhibition (HSV-1 (F strain) [5]; Exp. 1C, 3 hours pre-incubation, 2.5 mg/culture): 10% | % plaque inhibition (HSV-1 (F strain) [5]; Exp. 1C, 3 hours pre-incubation, 5.0 mg/culture): 22% | % plaque inhibition (HSV-1 (F strain) [5]; Exp. 1C, 3 hours pre-incubation, 10.0 mg/culture): 71% | % plaque inhibition B (HSV-1 (F strain) [5]; 3 hours pre-incubation, 12.5 mg/culture): 80% | % plaque inhibition B (HSV-1 (F strain) [5]; 3 hours pre-incubation, 25.0 mg/culture): 79% | % plaque inhibition B (HSV-1 (F strain) [5]; 3 hours pre-incubation, 50.0 mg/culture): 82% | % plaque inhibition B (HSV-1 (F strain) [5]; 3 hours pre-incubation, 100.0 mg/culture): 79% | % plaque inhibition (HSV-1 (F strain) [5]; Exp. 1E, 2 hours pre-incubation, 6.25 mg/culture): 0% | % plaque inhibition (HSV-1 (F strain) [5]; Exp. 1E, 2 hours pre-incubation, 12.50 mg/culture): 18% | % plaque inhibition (HSV-1 (F strain) [5]; Exp. 1E, 2 hours pre-incubation, 25.00 mg/culture): 17% | % plaque inhibition (HSV-1 (F strain) [5]; Exp. 1E, 2 hours pre-incubation, 50.00 mg/culture): 24% | % plaque inhibition (HSV-1 (F strain) [5]; Exp. 1E, 2 hours pre-incubation, 100.00 mg/culture): 68% | % plaque inhibition (HSV-1 (F strain) [5]; Exp. 1E, 4 hours pre-incubation, 6.25 mg/culture): less than 20% | % plaque inhibition (HSV-1 (F strain) [5]; Exp. 1E, 4 hours pre-incubation, 12.50 mg/culture): less than 20% | % plaque inhibition (HSV-1 (F strain) [5]; Exp. 1E, 4 hours pre-incubation, 25.00 mg/culture): 37.5% | % plaque inhibition (HSV-1 (F strain) [5]; Exp. 1E, 4 hours pre-incubation, 50.00 mg/culture): 63% | appearance of cell layer (HSV-1 (F strain) [5]; Exp. 1E, 4 hours pre-incubation, 100.00 mg/culture): thin | % plaque inhibition (HSV-1 (F strain) [5]; Exp. 1E, 4 hours pre-incubation, 100.00 mg/culture, cell layer thin): 100% | % plaque inhibition (HSV-1 (F strain) [5]; Exp. 1E, 7 hours pre-incubation, 6.25 mg/culture): 50% | % plaque inhibition (HSV-1 (F strain) [5]; Exp. 1E, 7 hours pre-incubation, 12.50 mg/culture): 76% | % plaque inhibition (HSV-1 (F strain) [5]; Exp. 1E, 7 hours pre-incubation, 25.00 mg/culture): 96.5% | % plaque inhibition (HSV-1 (F strain) [5]; Exp. 1E, 7 hours pre-incubation, 50.00 mg/culture): 95.7% | appearance of cell layer (HSV-1 (F strain) [5]; Exp. 1E, 7 hours pre-incubation, 100.00 mg/culture): thin | % plaque inhibition (HSV-1 (F strain) [5]; Exp. 1E, 7 hours pre-incubation, 100.00 mg/culture, cell layer thin): 100% | PFU/ml (HSV-1 [6]; removed 4 hours P.I.): 1042 PFU/ml | PFU/ml (HSV-1 [6]; removed 6 hours P.I.): 596 PFU/ml | PFU/ml (HSV-1 [6]; removed 8 hours P.I.): 436 PFU/ml | PFU/ml (HSV-1 [6]; removed 10 hours P.I.): 163 PFU/ml | inhibition at 20000 µg/mL (HSV-1 [7]; Human alphaherpesvirus 1, 4 h): 25% | inhibition at 20000 µg/mL (HSV-1 [7]; Human alphaherpesvirus 1, 6 h): 57% | inhibition at 20000 µg/mL (HSV-1 [7]; Human alphaherpesvirus 1, 8 h): 69% | inhibition at 20000 µg/mL (HSV-1 [7]; Human alphaherpesvirus 1, 10 h): 88%
